Data from PubChem BioAssay (NCI).
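Grown in 96-well plates, cells were treated for 48 hours with each compound at five concentrations. Insufficient inhibition: endpoint recorded as highest concentration tested. GI50 marks 50% less growth. The concentration for full growth arrest is given as TGI.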

Experiments:
Experiment in all cases: inhibition of tumour cell growth, NCI panel, 48 h
MCF7 breast = tested on: MCF7 breast
CCRF-CEM leukemia = tested on: CCRF-CEM leukemia
HS 578T breast = tested on: HS 578T breast
EKVX NSCLC = tested on: EKVX NSCLC
HT29 colon = tested on: HT29 colon
SN12C renal = tested on: SN12C renal
IGROV1 ovarian = tested on: IGROV1 ovarian
DLD-1 colon = tested on: DLD-1 colon
M19-MEL melanoma = tested on: M19-MEL melanoma
DMS 273 small cell lung = tested on: DMS 273 small cell lung

| Structure (SMILES) | GI50 (MCF7 breast) [µM] | TGI (MCF7 breast) [µM] | GI50 (CCRF-CEM leukemia) [µM] | TGI (CCRF-CEM leukemia) [µM] | GI50 (HS 578T breast) [µM] | TGI (HS 578T breast) [µM] | GI50 (EKVX NSCLC) [µM] | TGI (EKVX NSCLC) [µM] | GI50 (HT29 colon) [µM] | TGI (HT29 colon) [µM] | GI50 (SN12C renal) [µM] | TGI (SN12C renal) [µM] | GI50 (IGROV1 ovarian) [µM] | TGI (IGROV1 ovarian) [µM] | TGI (DLD-1 colon) [µM] | TGI (M19-MEL melanoma) [µM] | TGI (DMS 273 small cell lung) [µM] | GI50 (DLD-1 colon) [µM] | GI50 (M19-MEL melanoma) [µM] | GI50 (DMS 273 small cell lung) [µM] |
| --- | --- | --- | --- | --- | --- | --- | --- | --- | --- | --- | --- | --- | --- | --- | --- | --- | --- | --- | --- | --- |
| Nc1nc2c(ccc3ccccc32)s1 | 78.7 | > 100 | 48.1 | > 100 | > 100 | > 100 | 40.5 | > 100 | > 100 | > 100 | > 100 | > 100 | > 100 | > 100 | – | – | – | – | – | – |
| CC1=C(C(=O)Nc2ccccc2)C(c2cc(Cl)cc(Cl)c2)C(C(=O)Nc2ccccc2)=C(C)N1 | – | – | – | 14.9 | – | – | – | 41.3 | – | 21.4 | – | 25.3 | – | 41.9 | 20.2 | 26.4 | 35 | – | – | – |
| Clc1ccc(OCc2nnc3n2N=C(c2ccccc2)CS3)c(Cl)c1 | – | – | – | > 100 | – | – | – | – | – | > 100 | – | – | – | > 100 | > 100 | > 100 | > 100 | – | – | – |
| Cc1c(C)c2c(c(C)c1OCC(=O)O)CC[C@@](C)(CCC[C@@H](C)CCC[C@@H](C)CCCC(C)C)O2 | 74.6 | 199 | 27.1 | 189 | 89 | 229 | 64.2 | 148 | 58.3 | 140 | 66.7 | 176 | 91.7 | 187 | – | – | – | – | – | – |
| CCOC(=O)C1=C(C(=O)OCC)C2(c3ccccc3)N(O1)c1ccccc1C2(C)C (stereo not drawn) | – | – | – | > 100 | – | – | – | > 100 | – | > 100 | – | – | – | > 100 | > 100 | > 100 | – | – | – | – |
| O=C1C=C(Nc2ccc(S(=O)(=O)Nc3ncccn3)cc2)c2ccccc2C1=O | – | – | – | > 100 | – | – | – | 67.1 | – | 45 | – | 35.9 | – | 58 | 43.5 | 29.3 | 68.8 | – | – | – |
| COc1cc(CN(c2ccc(C)cc2)C2OC(=O)c3ccccc32)cc(OC)c1OC (stereo not drawn) | 0.339 | > 100 | 0.375 | > 100 | 0.308 | > 100 | 0.647 | > 100 | 0.355 | > 100 | 0.854 | > 100 | 1.29 | > 100 | – | – | – | – | – | – |
| CCOc1ccc(C(C)=O)cc1NC(=O)c1cccc(-c2nnn(CC)n2)c1 | 0.333 | > 100 | 0.937 | > 100 | 0.996 | > 100 | 0.83 | > 100 | 0.325 | > 100 | 5.8 | > 100 | 5.7 | > 100 | – | – | – | – | – | – |
| COC(=O)N/N=C(\C)C(CN(C)C)C(c1ccccc1)c1c(O)c2ccccc2oc1=O (stereo not drawn) | – | – | – | > 100 | – | – | – | > 100 | – | > 100 | – | > 100 | – | > 100 | > 100 | > 100 | > 100 | – | – | – |
| C[C@H](NC(=O)c1c(C(F)F)nn(C)c1Oc1cccc(C(F)(F)F)c1)c1ccc(C(=O)O)cc1 | > 100 | > 100 | > 100 | > 100 | > 100 | > 100 | > 100 | > 100 | > 100 | > 100 | > 100 | > 100 | > 100 | > 100 | – | – | – | – | – | – |
| C/C(O)=C(\N=O)C(=O)NCc1ccccc1 | – | – | – | > 100 | – | – | – | > 100 | – | > 100 | – | > 100 | – | > 100 | > 100 | – | > 100 | – | – | – |
| CCC[CH2][Sn]([CH2]CCC)([O]C(=O)c1cccc(F)c1F)[O]C(=O)c1cccc(F)c1F | – | – | – | – | – | – | 1.41 | 2.71 | 1.62 | 2.99 | 1.19 | 2.44 | 1.4 | 2.76 | 1.94 | 1.57 | 2.33 | 0.653 | 0.436 | 1.11 |
| CCCCCCCCCCOC(=O)c1cc[n+](C)cc1 | – | – | – | 37.7 | – | – | – | 30.5 | – | 31.1 | – | 30.7 | – | 30.4 | 32.5 | 32.9 | 31.3 | – | – | – |
| c1ccc(C2CC(c3ccc4ccccc4c3)=Nc3ccccc3S2)cc1 (stereo not drawn) | – | – | – | 99.7 | – | – | – | 50.7 | – | 30.8 | – | 30.4 | – | 49 | – | 40.5 | 48.6 | – | – | – |
| COc1ccc2c(c1)CCc1c(CO)c(COC(=O)NC(C)C)n(C)c1-2 | – | > 100 | – | 12.5 | – | – | – | > 100 | – | 13.5 | – | 45.8 | – | 48.3 | 15.8 | 23.3 | 41.4 | – | – | – |
| N#C/C(=C\c1ccccc1)C(NO)Nc1ccccc1 (stereo not drawn) | – | – | – | > 100 | – | – | – | > 100 | – | > 100 | – | > 100 | – | > 100 | > 100 | > 100 | > 100 | – | – | – |
| CC1=C(C#N)C(/C=C(\Cl)c2ccc(F)cc2)C(C#N)=C(C)N1 | > 100 | > 100 | > 100 | > 100 | > 100 | > 100 | > 100 | > 100 | > 100 | > 100 | > 100 | > 100 | > 100 | > 100 | – | – | – | – | – | – |
| CCN(CC)c1ccc(/C=N/NC(=O)CSc2nc3ccccc3c(=O)n2Cc2ccc(S(N)(=O)=O)cc2)c(O)c1 | 0.457 | > 100 | 0.196 | > 100 | 2.11 | > 100 | 0.65 | > 100 | 3.01 | > 100 | 1.93 | > 100 | 0.785 | > 100 | – | – | – | – | – | – |
| Cc1ccccc1N=Nc1c(-c2ccccc2)nn(C(=O)CC(=O)Nc2cccc(Cl)c2)c1-c1ccccc1 | – | – | – | 25.4 | – | – | – | > 31.6 | – | 23.4 | – | 22.9 | – | > 31.6 | > 31.6 | – | > 31.6 | – | – | – |
| NC(CSC(c1ccccc1)(c1ccccc1)c1ccc(F)cc1)C(=O)O (stereo not drawn) | 0.344 | > 100 | 0.289 | > 100 | 0.239 | 0.841 | 0.525 | > 74.2 | 0.803 | > 27.8 | 0.564 | > 70.7 | 0.856 | > 100 | – | – | – | – | – | – |
